Drawing on patent US8476292B2, “Amide and carbamate derivatives of N-{2-[4-amino-2-(ethoxymethyl)-1H-imidazo[4,5-c] quinolin-1-Yl]-1,1-dimethylethyl}methanesulfonamide and methods” (3M Innovative Properties Company, priority 2005, dated 2013), this text covers melting point for six compounds.

As usually defined, the melting point is the temperature, or range, at which the solid turns liquid. With `CCOCc1nc2c(NC(=O)c3ccccc3)nc3ccccc3c2n1CC(C)(C)NS(C)(=O)=O` [Example 2, N-(2-Ethoxymethyl-1-{2-methyl-2-[(methylsulfonyl)amino]propyl}-1H-imidazo[4,5-c]quinolin-4-yl)benzamide], the melting point lay within 80 to 83 °C.

With `CCCCOC(=O)Nc1nc2ccccc2c2c1nc(COCC)n2CC(C)(C)NS(C)(=O)=O` [Example 7, Butyl 2-Ethoxymethyl-1-{2-methyl-2-[(methylsulfonyl)amino]propyl}-1H-imidazo[4,5-c]quinolin-4-ylcarbamate], the melting point lay within 125 to 127 °C. Then `CCCOC(=O)Nc1nc2ccccc2c2c1nc(COCC)n2CC(C)(C)NS(C)(=O)=O` [Example 6, Propyl 2-Ethoxymethyl-1-{2-methyl-2-[(methylsulfonyl)amino]propyl}-1H-imidazo[4,5-c]quinolin-4-ylcarbamate], with 177 to 179 °C; and `CCOCc1nc2c(NC(=O)OCC)nc3ccccc3c2n1CC(C)(C)NS(C)(=O)=O` [Example 5, Ethyl 2-Ethoxymethyl-1-{2-methyl-2-[(methylsulfonyl)amino]propyl}-1H-imidazo[4,5-c]quinolin-4-ylcarbamate], with 163 to 165 °C; and `CCOCc1nc2c(NC(C)=O)nc3ccccc3c2n1CC(C)(C)NS(C)(=O)=O` [Example 1, N-(2-Ethoxymethyl-1-{2-methyl-2-[(methylsulfonyl)amino]propyl}-1H-imidazo[4,5-c]quinolin-4-yl)acetamide], with 75 to 76 °C. As to `CCOCc1nc2c(NC(=O)C(C)C)nc3ccccc3c2n1CC(C)(C)NS(C)(=O)=O` [Example 3], the melting point lay within 67 to 70 °C.
